molecular target: WDR5 (Homo sapiens (Human), UniProt P61964); experiment: Surface Plasmon Resonance (SPR) assay, KD and residence time; format: binding; details: surface plasmon resonance (SPR) assay; read-out: WDR5 binding affinity (KD)

Compound | Kd
Cc1cc(C)nc(N2CC=C(c3cc(NC(=O)c4c[nH]c(=O)cc4C(F)(F)F)c(N4C[C@@H](C)N(C)[C@@H](C)C4)cc3F)CC2)n1 [Example 368, N-[5-[1-(4,6-dimethylpyrimidin-2-yl)-3,6-dihydro-2H-pyridin-4-yl]-4-fluoro-2-[(3R,5S)-3,4,5-trimethylpiperazin-1-yl]phenyl]-6-oxo-4-(trifluoromethyl)-1H-pyridine-3-carboxamide] | 2.3 nM
C[C@@H]1CN(c2cc(F)c(C3=CCN(Cc4cnn(C)c4)CC3)cc2NC(=O)c2c[nH]c(=O)cc2C(F)(F)F)C[C@H](C)N1C [Example 164, N-[4-fluoro-5-[1-[(I-methylpyrazol-4-yl)methyl]-3,6-dihydro-2H-pyridin-4-yl]-2-[(3R,5S)-3,4,5-trimethylpiperazin-1-yl]phenyl]-6-oxo-4-(trifluoromethyl)-1H-pyridine-3-carboxamide] | 1.43 nM
C[C@@H]1CN(c2cc(F)c(C3=CCNCC3)cc2NC(=O)c2c[nH]c(=O)cc2C(F)(F)F)C[C@H](C)N1C [Example 95, N-[4-fluoro-2-[(3R,5S)-3,4,5-trimethylpiperazin-1-yl]-5-(1,2,3,6-tetrahydropyridin-4-yl)phenyl]-6-oxo-4-(trifluoromethyl)-1H-pyridine-3-carboxamide] | 7.18 nM
C[C@@H]1CN(c2cc(F)c(C3=CCCN(c4ncccn4)C3)cc2NC(=O)c2cn(C)c(=O)cc2C(F)(F)F)C[C@H](C)N1C [Example 391, N-[4-fluoro-5-(1-pyrimidin-2-yl-3,6-dihydro-2H-pyridin-5-yl)-2-[(3R,5S)-3,4,5-trimethylpiperazin-1-yl]phenyl]-1-methyl-6-oxo-4-(trifluoromethyl)pyridine-3-carboxamide] | 4.27 nM
C[C@@H]1CN(c2cc(F)c(-c3ccc(N4CCOCC4)cc3)cc2NC(=O)c2cn(C)c(=O)cc2C(F)(F)F)C[C@H](C)N1C [Example 204, N-[4-fluoro-5-(4-morpholin-4-ylphenyl)-2-[(3R,5S)-3,4,5-trimethylpiperazin-1-yl]phenyl]-1-methyl-6-oxo-4-(trifluoromethyl)pyridine-3-carboxamide] | 13.8 nM
C[C@@H]1CN(c2cc(F)c(-c3ccccc3CNC3CCCCC3)cc2NC(=O)c2c[nH]c(=O)cc2C(F)(F)F)C[C@H](C)N1C [Example 67, N-[5-[2-[(cyclohexylamino)methyl]phenyl]-4-fluoro-2-[(3R,5S)-3,4,5-trimethylpiperazin-1-yl]phenyl]-6-oxo-4-(trifluoromethyl)-1H-pyridine-3-carboxamide] | 4.82 nM
C[C@@H]1CN(c2cc(F)c(C3=CCN(Cc4ccc(N5CCOCC5)cc4)CC3)cc2NC(=O)c2c[nH]c(=O)cc2C(F)(F)F)C[C@H](C)N1C [Example 165, N-[4-fluoro-5-[1-[(4-morpholin-4-ylphenyl)methyl]-3,6-dihydro-2H-pyridin-4-yl]-2-[(3R,5S)-3,4,5-trimethylpiperazin-1-yl]phenyl]-6-oxo-4-(trifluoromethyl)-1H-pyridine-3-carboxamide] | 6.28 nM

Other lines, results leading:

Kd | Compound
5.37 nM | CC1CN(c2cc(F)c(-c3ccc(N4CCN(C)CC4)cc3)cc2NC(=O)c2cn(C)c(=O)cc2C(F)(F)F)CCN1C (stereo in doubt) [Example 302, N-[4-fluoro-5-[4-(4-methylpiperazin-1-yl)phenyl]-2-[(3R)-3,4-dimethylpiperazin-1-yl]phenyl]-1-methyl-6-oxo-4-(trifluoromethyl)pyridine-3-carboxamide]
466 nM | C[C@@H]1CN(c2cc(F)c(-c3cnc(N4CCOCC4)nc3)cc2NC(=O)c2cccc3c2OCO3)C[C@H](C)N1C [Example 105, N-[4-fluoro-5-(2-morpholin-4-ylpyrimidin-5-yl)-2-[(3R,5S)-3,4,5-trimethylpiperazin-1-yl]phenyl]-1,3-benzodioxole-4-carboxamide]
1.67 nM | CCOC(=O)c1ccnc(N2CC=C(c3cc(NC(=O)c4c[nH]c(=O)cc4C(F)(F)F)c(N4C[C@@H](C)N(C)[C@@H](C)C4)cc3F)CC2)n1 [Example 276, ethyl 2-[4-[2-fluoro-5-[[6-oxo-4-(trifluoromethyl)-1H-pyridine-3-carbonyl]amino]-4-[(3R,5S)-3,4,5-trimethylpiperazin-1-yl]phenyl]-3,6-dihydro-2H-pyridin-1-yl]pyrimidine-4-carboxylate]
14.8 nM | CN(C)[C@@H]1CCN(c2cc(F)c(-c3cnc(N4CCOCC4)nc3)cc2NC(=O)c2cn(C)nc2C(F)(F)F)C1 [Example 283, N-[4-fluoro-5-(2-morpholin-4-ylpyrimidin-5-yl)-2-[(3R)-3-(dimethylamino)pyrrolidin-1-yl]phenyl]-1-methyl-3-(trifluoromethyl)pyrazole-4-carboxamide]

same assay, conditions: surface plasmon resonance (SPR); read-out: WDR5 binding affinity (KD)

Compound | Kd
C[C@@H]1CN(c2cc(F)c(-c3ncc(C(=O)NCC4CC4)s3)cc2NC(=O)c2c[nH]c(=O)cc2C(F)(F)F)C[C@H](C)N1C [Example 496, N-(cyclopropylmethyl)-2-[2-fluoro-5-[[6-oxo-4-(trifluoromethyl)-1H-pyridine-3-carbonyl]amino]-4-[(3R,5S)-3,4,5-trimethylpiperazin-1-yl]phenyl]-1,3-thiazole-5-carboxamide] | 3.03 nM
CC(C)OC(=O)N1CCC=C(c2cc(NC(=O)c3c[nH]c(=O)cc3C(F)F)c(N3C[C@@H](C)N(C)[C@@H](C)C3)cc2F)CC1 [Example 723, propan-2-yl 4-[5-[[4-(difluoromethyl)-6-oxo-1H-pyridine-3-carbonyl]amino]-2-fluoro-4-[(3R,5S)-3,4,5-trimethylpiperazin-1-yl]phenyl]-2,3,6,7-tetrahydroazepine-1-carboxylate] | 3.12 nM
Cc1cc(C(=O)Nc2cc(-c3cnc(N4CCOC(C)C4)nc3)c(F)cc2N2C[C@@H](C)N(C)[C@@H](C)C2)cc(C)c1F (stereo in doubt) [Example 611, 4-fluoro-N-[4-fluoro-5-[2-[(2R)-2-methylmorpholin-4-yl]pyrimidin-5-yl]-2-[(3S,5R)-3,4,5-trimethylpiperazin-1-yl]phenyl]-3,5-dimethylbenzamide] | 1.55 nM
C[C@@H]1CN(c2cc(F)c(-c3cc(F)c(C(=O)N(C)C4CCCCC4)c(F)c3)cc2NC(=O)c2c[nH]c(=O)cc2C(F)(F)F)C[C@H](C)N1C [Example 760, N-(4′-(cyclohexyl(methyl)carbamoyl)-3′,5′,6-trifluoro-4-((3S,5R)-3,4,5-trimethylpiperazin-1-yl)-[1,1′-biphenyl]-3-yl)-6-oxo-4-(trifluoromethyl)-1,6-dihydropyridine-3-carboxamide] | 2 nM

Continued, values first:

Kd | Compound
2.46 nM | CC(C)OC(=O)N1CC=C(c2cc(NC(=O)c3ccc(F)cc3C(F)(F)F)c(N3CCN(C)C(C)C3)cc2F)CC1 (stereo in doubt) [Example 727, propan-2-yl 4-[2-fluoro-5-[[4-fluoro-2-(trifluoromethyl)benzoyl]amino]-4-[(3R)-3,4-dimethylpiperazin-1-yl]phenyl]-3,6-dihydro-2H-pyridine-1-carboxylate]
1.99 nM | COc1cc(N2CC=C(c3cc(NC(=O)c4c[nH]c(=O)cc4C(F)(F)F)c(N4C[C@@H](C)N(C)[C@@H](C)C4)cc3F)C2)ncn1 [Example 438, N-[4-fluoro-5-[1-(6-methoxypyrimidin-4-yl)-2,5-dihydropyrrol-3-yl]-2-[(3R,5S)-3,4,5-trimethylpiperazin-1-yl]phenyl]-6-oxo-4-(trifluoromethyl)-1H-pyridine-3-carboxamide]

— patent US11319299B2, “Substituted carboxamides as inhibitors of WDR5 protein-protein binding” (PROPELLON THERAPEUTICS INC., priority 2016, dated 2022)
